Results: DBAASP
In brackets after ≈: the same amount, converted by molar mass. Several values for one entry are separate records, joined by “and”; a condition that tells them apart may be missing. Equal entries are not always repeated. Each block holds one compound with its values, some of them ahead of it.

How the values were obtained:
Assay in all cases: ≥ marks a high value that may be exact or a test limit, other limits are often not marked, values filed in µg/mL are converted to µM
[1] = system: Candida albicans NCYC 1467
[2] = system: Enterococcus faecalis NCTC 12697
[3] = system: Escherichia coli NCTC 10418
[4] = system: Klebsiella pneumoniae ATCC 43816
[5] = system: Pseudomonas aeruginosa ATCC 27853
[6] = system: Staphylococcus aureus NCTC 10788
[7] = system: Staphylococcus aureus NCTC 12493
[8] = system: Acinetobacter baumannii NM109
[9] = system: Acinetobacter baumannii NM124
[10] = system: Acinetobacter baumannii NM35
[11] = system: Acinetobacter baumannii NM75
[12] = system: Acinetobacter baumannii NM8
[13] = system: Acinetobacter baumannii
[14] = system: Candida albicans ATCC 10231
[15] = system: Candida albicans ATCC 90028
[16] = system: Escherichia coli ATCC 25726
[17] = system: Escherichia coli D31
[18] = system: Escherichia coli K-12
[19] = system: Pseudomonas aeruginosa ATCC 15442
[20] = system: Staphylococcus aureus ATCC 25923
[21] = system: Staphylococcus aureus USA 300
[22] = system: Streptococcus mutans ATCC 25175
[23] = system: Bacillus cereus ATCC 11778
[24] = system: Escherichia coli CCT 1457
[25] = system: Staphylococcus aureus CCT 2580
[26] = system: Micrococcus luteus DSM 20030
[27] = system: Bacillus subtilis ATCC 62037
[28] = system: Cryptococcus neoformans ATCC 34881
[29] = system: Escherichia coli ATCC 27325
[30] = system: Pseudomonas putida ATCC 17426
[31] = system: Saccharomyces cerevisiae ATCC 44774
[32] = system: Salmonella enterica subsp. enterica serovar Enteritidis ATCC 13076
[33] = system: Staphylococcus aureus ATCC 15752
[34] = system: Bacillus subtilis
[35] = system: Candida albicans
[36] = system: Escherichia coli
[37] = system: Klebsiella pneumoniae
[38] = system: Micrococcus luteus
[39] = system: Proteus mirabilis
[40] = system: Pseudomonas aeruginosa
[41] = system: Salmonella typhimurium
[42] = system: Serratia marcescens
[43] = system: Shigella dysenteriae

MIC [1]: 8 µM (≈ 16.1 µg/mL)
MIC [2]: ≥ 64 µM
MIC [3]: ≥ 64 µM
MIC [4]: ≥ 256 µM
MIC [5]: > 512 µM
MIC [6]: 4 µM (≈ 8.05 µg/mL)
MIC [7]: 16 µM (≈ 32.2 µg/mL)
SMILES: CC[C@H](C)[C@H](NC(=O)[C@H](C)NC(=O)[C@H](CO)NC(=O)[C@@H](NC(=O)[C@H](C)NC(=O)[C@H](CCCCN)NC(=O)[C@@H]1CCCN1C(=O)[C@@H](NC(=O)[C@H](CC(C)C)NC(=O)[C@H](CO)NC(=O)[C@H](CC(C)C)NC(=O)[C@@H](N)Cc1ccccc1)[C@@H](C)CC)[C@@H](C)CC)C(=O)N[C@@H](CO)C(=O)N[C@@H](C)C(=O)N[C@@H](CC(C)C)C(=O)N[C@@H](C)C(=O)N[C@@H](CC(N)=O)C(=O)N[C@@H](Cc1cnc[nH]1)C(=O)N[C@@H](Cc1ccccc1)C(N)=O [FLSLIPKAISAISALANHF]

MIC [8]: 6 µM (≈ 13.9 µg/mL)
MIC [9]: 6 µM (≈ 13.9 µg/mL)
MIC [10]: 6 µM (≈ 13.9 µg/mL)
MIC [11]: 3 µM (≈ 6.96 µg/mL)
MIC [12]: 6 µM (≈ 13.9 µg/mL)
MIC [13]: 12.5 µM (≈ 29 µg/mL)
MIC [14]: 16 µM (≈ 37.1 µg/mL)
MIC [15]: 12.5 µM (≈ 29 µg/mL)
MIC [16]: 25 µM (≈ 58 µg/mL)
MIC [17]: ≥ 32 µM
MIC [18]: 25 µM (≈ 58 µg/mL)
MIC [19]: ≥ 100 µM
MIC [20]: 25 µM and 22.6 µM
MIC [21]: 25 µM (≈ 58 µg/mL)
MIC [22]: ≥ 100 µM
SMILES: CC[C@H](C)[C@H](NC(=O)CN)C(=O)N[C@@H](Cc1c[nH]c2ccccc12)C(=O)N[C@@H](CC(=O)O)C(=O)N[C@H](C(=O)N[C@H](C(=O)N[C@@H](CCCCN)C(=O)N[C@@H](CO)C(=O)N[C@@H](CCSC)C(=O)NCC(=O)N[C@@H](CCCCN)C(=O)N[C@H](C(=O)N[C@@H](Cc1ccccc1)C(=O)N[C@@H](C)C(=O)NCC(=O)N[C@@H](CCCCN)C(=O)N[C@H](C(=O)N[C@@H](CC(C)C)C(=O)N[C@@H](CCC(N)=O)C(=O)N[C@@H](CC(N)=O)C(=O)N[C@@H](CC(C)C)C(N)=O)[C@@H](C)CC)C(C)C)[C@@H](C)CC)[C@@H](C)O [GIWDTIKSMGKVFAGKILQNL]

MIC [23]: ≥ 37.3 µM
MIC [24]: ≥ 37.3 µM
MIC [19]: ≥ 301 µM
MIC [25]: 18.7 µM (≈ 31 µg/mL)
SMILES: CC[C@H](C)[C@H](N)C(=O)N[C@@H](CC(=O)O)C(=O)N[C@@H](Cc1c[nH]c2ccccc12)C(=O)N[C@@H](CC(C)C)C(=O)N[C@@H](CCCCN)C(=O)N[C@@H](CC(C)C)C(=O)NCC(=O)N[C@@H](CCCCN)C(=O)N[C@@H](CCSC)C(=O)N[C@H](C(=O)N[C@@H](CCSC)C(=O)N[C@@H](CC(=O)O)C(=O)N[C@H](C(=O)N[C@@H](CC(C)C)C(N)=O)C(C)C)C(C)C [IDWLKLGKMVMDVL]

MIC [26]: 4 µM (≈ 8.14 µg/mL)
SMILES: CC[C@H](C)[C@H](N)C(=O)N[C@@H](CO)C(=O)N[C@@H](CCC(N)=O)C(=O)N[C@@H](CO)C(=O)N[C@@H](CC(=O)O)C(=O)N[C@@H](C)C(=O)N[C@H](C(=O)N[C@@H](CC(C)C)C(=O)N[C@@H](CO)C(=O)N[C@@H](C)C(=O)N[C@H](C(=O)N[C@@H](Cc1c[nH]c2ccccc12)C(=O)N[C@@H](CO)C(=O)NCC(=O)N[C@H](C(=O)N[C@@H](CCCCN)C(=O)N[C@@H](CO)C(=O)N[C@@H](CC(C)C)C(=O)N[C@@H](Cc1ccccc1)C(N)=O)[C@@H](C)CC)[C@@H](C)CC)[C@@H](C)CC [ISQSDAILSAIWSGIKSLF]

MIC [27]: 0.765 µM (≈ 2 µg/mL)
MIC [14]: 0.765 µM (≈ 2 µg/mL)
MIC [28]: 0.383 µM (≈ 1 µg/mL)
MIC [29]: 0.383 µM (≈ 1 µg/mL)
MIC [30]: 0.765 µM (≈ 2 µg/mL)
MIC [31]: 0.765 µM (≈ 2 µg/mL)
MIC [32]: 0.765 µM (≈ 2 µg/mL)
MIC [33]: 0.383 µM (≈ 1 µg/mL)
MIC [22]: 0.765 µM (≈ 2 µg/mL)
SMILES: CC[C@H](C)[C@H](NC(=O)[C@@H]1CCCN1C(=O)[C@H](Cc1c[nH]c2ccccc12)NC(=O)[C@H](CCC(N)=O)NC(=O)[C@H](CC(C)C)NC(=O)CNC(=O)[C@H](C)NC(=O)[C@@H](N)CCCN=C(N)N)C(=O)NCC(=O)N[C@@H](CCCN=C(N)N)C(=O)N[C@@H](CC(C)C)C(=O)N[C@@H](CC(C)C)C(=O)N[C@@H](CCCN=C(N)N)C(=O)N[C@@H](CCCN=C(N)N)C(=O)N[C@@H](CC(C)C)C(=O)N[C@@H](CC(C)C)C(=O)N[C@@H](CCCN=C(N)N)C(=O)N[C@@H](CCCN=C(N)N)C(=O)N[C@@H](CC(C)C)C(=O)N[C@@H](CC(C)C)C(=O)N[C@@H](CCCN=C(N)N)C(=O)O [RAGLQWPIGRLLRRLLRRLLR]

MIC [34]: ≥ 76.3 µM
MIC [35]: 76.3 µM (≈ 200 µg/mL)
MIC [36]: > 76.3 µM
MIC [37]: > 76.3 µM
MIC [38]: 9.54 µM (≈ 25 µg/mL)
MIC [39]: ≥ 76.3 µM
MIC [40]: > 76.3 µM
MIC [41]: ≥ 76.3 µM
MIC [42]: ≥ 76.3 µM
MIC [43]: ≥ 76.3 µM
SMILES: CC[C@H](C)[C@H](NC(=O)[C@@H](N)C(C)C)C(=O)N1CCC[C@H]1C(=O)N[C@@H](Cc1ccccc1)C(=O)N[C@H](C(=O)N[C@@H](C)C(=O)N[C@@H](CO)C(=O)N[C@H](C(=O)N[C@@H](C)C(=O)N[C@@H](C)C(=O)N[C@@H](CCC(=O)O)C(=O)N[C@@H](CCSC)C(=O)N[C@@H](CCSC)C(=O)N[C@@H](Cc1cnc[nH]1)C(=O)N[C@@H](Cc1cnc[nH]1)C(=O)N[C@H](C(=O)N[C@@H](Cc1ccc(O)cc1)C(=O)N[C@H]1CSSC[C@@H](C(=O)O)NC(=O)[C@H](CCCN=C(N)N)NC(=O)[C@H](CCCCN)NC(=O)[C@H](CO)NC(=O)[C@H](C)NC(=O)[C@H](C)NC1=O)C(C)C)C(C)C)C(C)C [VIPFVASVAAEMMHHVYCAASKRC]
